Assay results as given in patent US6737383B1, “Herbicidal oxadiazolidines” (priority 1999, dated 2004).

How the values were obtained:
[1] = test system: Chenopodium album (CHEAL); experiment: Test F preemergence, alone and in mixture with rimsulfuron, CHEAL; assay type: in vivo; details: 21 days after treatment
Experimental: (§1) Abutilon theophrasti (ABUTH), Chenopodium album (CHEAL), Amaranthus rudis (AMATA), Setaria faberii (SETFA), Panicum dichotomiflorum (PANDI), and Digitaria sanguinalis (DIGSA) were grown from seed in pots of an artificial potting mixture in a greenhouse. Compounds of the present invention were applied at 70 and 105 g ai/ha preemergence. Rimsulfuron was applied at 8.8 and 17.5 g ai/ha. Mixtures of the compounds of the present invention and rimsulfuron were also applied.
(§2) Following application, the plants were maintained by watering as needed. A fertilizer solution of Peter's 20-20-20 (10 pounds/5 gallons of water) plus Sprint 330, a Iron Chelate micronutrient, (113.5 grams/5 gallons of water) was injected into the water with an Anderson fertilizer injection system to provide approximately 219 ppm of nitrogen with each watering. Artificial lighting was used to supplement natural light to produce a 14 hour photoperiod and: an additional one hour light period was used between 1:00 am to 2:00 am for a night interruption. Greenhouse temperatures were targeted for 27° C. in the day and 21° C. at night. At 21 days after treatment, all plants were evaluated for injury as compared to control plants that were sprayed only with non-phytotoxic solvent.
(§3) Colby's equation was used to calculate the expected additive herbicidal effect of the mixtures of Compound 21 and the mixture partners listed above. […]

[2] = test system: Panicum dichotomiflorum (PANDI); experiment: Test F preemergence, alone and in mixture with rimsulfuron, PANDI; assay type: in vivo; details: 21 days after treatment
Experimental: as §1, §2, §3

Amaranthus rudis (AMATA) = experiment: Test F preemergence, alone and in mixture with rimsulfuron, AMATA; assay type: in vivo; details: 21 days after treatment
Summary of the method: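 Greenhouse pot plants treated preemergence with compound at 70 and 105 g ai/ha, rimsulfuron at 8.8 and 17.5 g ai/ha, or mixtures; 27° C day/21° C night, 14 hour photoperiod. Injury scored at 21 days after treatment against solvent-sprayed controls; expected additive effect of mixtures calculated by Colby's equation.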

[3] = test system: Digitaria sanguinalis (DIGSA); experiment: Test F preemergence, alone and in mixture with rimsulfuron, DIGSA; assay type: in vivo; details: 21 days after treatment
Experimental: as §1, §2, §3

Setaria faberii (SETFA) = experiment: Test F preemergence, alone and in mixture with rimsulfuron, SETFA; assay type: in vivo; details: 21 days after treatment
Experimental: as §1, §2, §3

[4] = test system: Abutilon theophrasti (ABUTH); experiment: Test F preemergence, alone and in mixture with rimsulfuron, ABUTH; assay type: in vivo; details: 21 days after treatment
Experimental: as §1, §2, §3

velvetleaf = experiment: Test B pre/postemergence velvetleaf; assay type: in vivo, Abutilon theophrasti; details: for Velvetleaf plant response rating: Postemergence; for Plant response rating, Velvetleaf: Preemergence
Summary of the method: (§4)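 Response is a visual 0-to-10 score relative to untreated plants, where 0 means no effect and 10 means complete control, taken twelve to sixteen days after application. Treatments went onto soil at planting and onto foliage of 1- to 4-leaf plants, using a surfactant-containing non-phytotoxic solvent.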

rape = experiment: Test B pre/postemergence rape; assay type: in vivo, Brassica napus; details: for Rape plant response rating: Postemergence; for Plant response rating, Rape: Preemergence
Summary of the method: as §4

rice = experiment: Test B flood test rice; assay type: in vivo, Oryza sativa
Summary of the method: (§5)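 Flood test on plants grown to the 2-leaf stage; treated plants kept in greenhouse twelve to sixteen days, then visually rated against controls on a 0 (no effect) to 10 (complete control) scale.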

giant foxtail = experiment: Test B pre/postemergence giant foxtail; assay type: in vivo, Setaria faberii; details: for Giant foxtail plant response rating: Postemergence; for Plant response rating, Giant foxtail: Preemergence
Summary of the method: as §4

wild oat = experiment: Test B pre/postemergence wild oat; assay type: in vivo, Avena fatua; details: for Wild oats plant response rating: Postemergence; for Plant response rating, Wild oats: Preemergence
Summary of the method: as §4

corn = experiment: Test B pre/postemergence corn; assay type: in vivo, Zea mays; details: for Corn plant response rating: Postemergence; for Plant response rating, Corn: Preemergence
Summary of the method: as §4

smallflower flatsedge = experiment: Test B flood test smallflower flatsedge; assay type: in vivo, Cyperus difformis
Summary of the method: as §5

wheat = experiment: Test B pre/postemergence wheat; assay type: in vivo, Triticum aestivum; details: for Wheat plant response rating: Postemergence; for Plant response rating, Wheat: Preemergence
Summary of the method: as §4

morningglory = experiment: Test B pre/postemergence morningglory; assay type: in vivo, Ipomoea hederacea; details: for Morningglory plant response rating: Postemergence; for Plant response rating, Morningglory: Preemergence
Summary of the method: as §4

crabgrass = experiment: Test B pre/postemergence crabgrass; assay type: in vivo, Digitaria sanguinalis; details: for Crabgrass plant response rating: Postemergence; for Plant response rating, Crabgrass: Preemergence
Summary of the method: as §4

pigweed = experiment: Test B pre/postemergence pigweed; assay type: in vivo, Amaranthus retroflexus; details: for Redroot pigweed plant response rating: Postemergence; for Plant response rating, Redroot pigweed: Preemergence
Summary of the method: as §4

soybean = experiment: Test B pre/postemergence soybean; assay type: in vivo, Glycine max; details: for Soybean plant response rating: Postemergence; for Plant response rating, Soybean: Preemergence
Summary of the method: as §4

surinam grass = experiment: Test B pre/postemergence surinam grass; assay type: in vivo, Brachiaria decumbens; details: for B. signalgrass plant response rating: Postemergence; for Plant response rating, B. signalgrass: Preemergence
Summary of the method: as §4

purple nutsedge = experiment: Test B pre/postemergence purple nutsedge; assay type: in vivo, Cyperus rotundus; details: for Nutsedge plant response rating: Postemergence; for Plant response rating, Nutsedge: Preemergence
Summary of the method: as §4

cocklebur = experiment: Test B pre/postemergence cocklebur; assay type: in vivo, Xanthium strumarium; details: for Cocklebur plant response rating: Postemergence; for Plant response rating, Cocklebur: Preemergence
Summary of the method: as §4

sugar beet = experiment: Test B pre/postemergence sugar beet; assay type: in vivo, Beta vulgaris; details: for Sugarbeets plant response rating: Postemergence; for Plant response rating, Sugarbeets: Preemergence
Summary of the method: as §4

bamyardgrass = experiment: Test B flood test barnyardgrass; assay type: in vivo, Echinochloa crus-galli
Summary of the method: as §5

bedstraw = experiment: Test B pre/postemergence bedstraw; assay type: in vivo, Galium aparine; details: for Bedstraw plant response rating: Postemergence
Summary of the method: as §4

blackgrass = experiment: Test B pre/postemergence blackgrass; assay type: in vivo, Alopecurus myosuroides; details: for Blackgrass plant response rating: Postemergence; for Plant response rating, Blackgrass: Preemergence
Summary of the method: as §4

duck salad = experiment: Test B flood test duck salad; assay type: in vivo, Heteranthera limosa
Summary of the method: as §5

[5] = Alone: Cmpd. 0, Rimsulfuron rate 8.8
[6] = Alone: Cmpd. 0, Rimsulfuron rate 17.5
[7] = Rate 125 g/ha, scale of 0 to 10 where 0 is no effect and 10 is complete control
[8] = Rate 500 g/ha, scale of 0 to 10 where 0 is no effect and 10 is complete control
[9] = Rate 250 g/ha, scale 0 to 10, 0 is no effect, 10 is complete control
[10] = Rate 500 g/ha, scale 0 to 10, 0 is no effect, 10 is complete control
[11] = Rate 1000 g/ha, scale 0 to 10 (0 no effect, 10 complete control)
[12] = Pre-emergence, Rate 1000 g/ha, scale 0 to 10 (0 no effect, 10 complete control)
[13] = Rate 125 g/ha, under heading Pre-emergence, flood test species, visual evaluation after twelve to sixteen days
[14] = Rate 250 g/ha, Pre-emergence (flood test species), scale 0 to 10, 0 is no effect, 10 is complete control
[15] = Rate 500 g/ha, Pre-emergence section of Table B, 0 to 10 scale (0 no effect, 10 complete control)
[16] = Rate 250 g/ha, scale 0 to 10 (0 no effect, 10 complete control)

## CCS(=O)(=O)c1cccnc1S(=O)(=O)NC(=O)Nc1nc(OC)cc(OC)n1 [rimsulfuron]
[1]; [5]
  CHEAL Observed: 25%
[1]; [6]
  CHEAL Observed: 60%
[2]; [5]
  PANDI Observed: 75%
[2]; [6]
  PANDI Observed: 95%
Amaranthus rudis (AMATA); [5]
  AMATA Observed: 10%
Amaranthus rudis (AMATA); [6]
  AMATA Observed: 15%
[3]; [5]
  DIGSA Observed: 95%
[3]; [6]
  DIGSA Observed: 100%
Setaria faberii (SETFA); [5]
  SETFA Observed: 75%
Setaria faberii (SETFA); [6]
  SETFA Observed: 90%
[4]; [5]
  ABUTH Observed: 20%
[4]; [6]
  ABUTH Observed: 40%

## CCOC(=O)CC(C(=O)OCC)n1c(=O)on(C(=O)N(c2ccc(Cl)cc2)C(C)C)c1=O (stereo not drawn) [Compound 681]
velvetleaf; [7]
  Velvetleaf plant response rating: 0
  Plant response rating, Velvetleaf: 0
velvetleaf; [8]
  Plant response rating, Velvetleaf: 0
velvetleaf; [9]
  Velvetleaf plant response rating: 0
velvetleaf; [10]
  Velvetleaf plant response rating: 0
velvetleaf; [11]
  Plant response rating, Velvetleaf: 0
rape; [7]
  Rape plant response rating: 0
  Plant response rating, Rape: 0
rape; [11]
  Rape plant response rating: 0
  Plant response rating, Rape: 0
rape; [8]
  Plant response rating, Rape: 0
rape; [9]
  Rape plant response rating: 0
rape; [10]
  Rape plant response rating: 0
rice; [12]
  Rice plant response rating: 0
rice; [13]
  Rice plant response rating (0 to 10 scale, 0 is no effect, 10 is complete control): 0
rice; [14]
  Rice plant response rating: 0
rice; [15]
  Rice plant response rating: 0
Giant foxtail; [7]
  Giant foxtail plant response rating: 0
  Plant response rating, Giant foxtail: 0
Giant foxtail; [11]
  Giant foxtail plant response rating: 3
  Plant response rating, Giant foxtail: 9
Giant foxtail; [8]
  Plant response rating, Giant foxtail: 9
Giant foxtail; [9]
  Giant foxtail plant response rating: 0
Giant foxtail; [10]
  Giant foxtail plant response rating: 0
Wild oat; [7]
  Wild oats plant response rating: 0
  Plant response rating, Wild oats: 0
Wild oat; [8]
  Plant response rating, Wild oats: 0
Wild oat; [9]
  Wild oats plant response rating: 0
Wild oat; [10]
  Wild oats plant response rating: 0
Wild oat; [11]
  Plant response rating, Wild oats: 3
corn; [7]
  Corn plant response rating: 0
  Plant response rating, Corn: 0
corn; [11]
  Corn plant response rating: 0
  Plant response rating, Corn: 0
corn; [16]
  Plant response rating, Corn: 0
corn; [8]
  Plant response rating, Corn: 0
corn; [9]
  Corn plant response rating: 0
corn; [10]
  Corn plant response rating: 0
Smallflower flatsedge; [12]
  S. Flatsedge plant response rating: 0
Smallflower flatsedge; [13]
  S. Flatsedge plant response rating (0 to 10 scale, 0 is no effect, 10 is complete control): 0
Smallflower flatsedge; [14]
  S. Flatsedge plant response rating: 0
Smallflower flatsedge; [15]
  S. Flatsedge plant response rating: 0
wheat; [7]
  Wheat plant response rating: 0
  Plant response rating, Wheat: 0
wheat; [8]
  Plant response rating, Wheat: 0
wheat; [9]
  Wheat plant response rating: 0
wheat; [10]
  Wheat plant response rating: 0
wheat; [11]
  Plant response rating, Wheat: 0
morningglory; [7]
  Morningglory plant response rating: 0
  Plant response rating, Morningglory: 0
morningglory; [8]
  Plant response rating, Morningglory: 0
morningglory; [9]
  Morningglory plant response rating: 0
morningglory; [10]
  Morningglory plant response rating: 7
morningglory; [11]
  Plant response rating, Morningglory: 0
crabgrass; [7]
  Crabgrass plant response rating: 0
  Plant response rating, Crabgrass: 0
crabgrass; [11]
  Crabgrass plant response rating: 2
  Plant response rating, Crabgrass: 8
crabgrass; [16]
  Plant response rating, Crabgrass: 2
crabgrass; [8]
  Plant response rating, Crabgrass: 7
crabgrass; [9]
  Crabgrass plant response rating: 0
crabgrass; [10]
  Crabgrass plant response rating: 0
pigweed; [7]
  Redroot pigweed plant response rating: 0
  Plant response rating, Redroot pigweed: 0
pigweed; [11]
  Redroot pigweed plant response rating: 7
  Plant response rating, Redroot pigweed: 5
pigweed; [8]
  Plant response rating, Redroot pigweed: 3
pigweed; [9]
  Redroot pigweed plant response rating: 2
pigweed; [10]
  Redroot pigweed plant response rating: 6
soybean; [7]
  Soybean plant response rating: 0
  Plant response rating, Soybean: 0
soybean; [8]
  Plant response rating, Soybean: 0
soybean; [9]
  Soybean plant response rating: 0
soybean; [10]
  Soybean plant response rating: 1
soybean; [11]
  Plant response rating, Soybean: 0
Surinam grass; [7]
  B. signalgrass plant response rating: 0
  Plant response rating, B. signalgrass: 0
Surinam grass; [11]
  B. signalgrass plant response rating: 0
  Plant response rating, B. signalgrass: 4
Surinam grass; [16]
  Plant response rating, B. signalgrass: 0
Surinam grass; [8]
  Plant response rating, B. signalgrass: 0
Surinam grass; [9]
  B. signalgrass plant response rating: 0
Surinam grass; [10]
  B. signalgrass plant response rating: 0
Purple nutsedge; [7]
  Nutsedge plant response rating: 0
  Plant response rating, Nutsedge: 0
Purple nutsedge; [8]
  Plant response rating, Nutsedge: 0
Purple nutsedge; [9]
  Nutsedge plant response rating: 0
Purple nutsedge; [11]
  Plant response rating, Nutsedge: 0
cocklebur; [7]
  Cocklebur plant response rating: 0
  Plant response rating, Cocklebur: 0
cocklebur; [11]
  Cocklebur plant response rating: 0
cocklebur; [16]
  Plant response rating, Cocklebur: 0
cocklebur; [8]
  Plant response rating, Cocklebur: 0
cocklebur; [9]
  Cocklebur plant response rating: 0
cocklebur; [10]
  Cocklebur plant response rating: 0
Sugar beet; [7]
  Sugarbeets plant response rating: 0
  Plant response rating, Sugarbeets: 0
Sugar beet; [8]
  Plant response rating, Sugarbeets: 0
Sugar beet; [9]
  Sugarbeets plant response rating: 0
Sugar beet; [10]
  Sugarbeets plant response rating: 0
Sugar beet; [11]
  Plant response rating, Sugarbeets: 0
bamyardgrass; [12]
  Barnyardgrass plant response rating: 0
bamyardgrass; [13]
  Barnyardgrass plant response rating (0 to 10 scale, 0 is no effect, 10 is complete control): 0
bamyardgrass; [14]
  Barnyardgrass plant response rating: 0
bamyardgrass; [15]
  Barnyardgrass plant response rating: 0
bedstraw; [7]
  Bedstraw plant response rating: 0
bedstraw; Preemergence, Rate 125 g/ha, scale of 0 to 10 where 0 is no effect and 10 is complete control
  Plant response rating, Bedstraw: 0
bedstraw; [9]
  Bedstraw plant response rating: 0
blackgrass; [7]
  Blackgrass plant response rating: 0
  Plant response rating, Blackgrass: 0
blackgrass; [11]
  Blackgrass plant response rating: 4
  Plant response rating, Blackgrass: 6
blackgrass; [16]
  Plant response rating, Blackgrass: 1
blackgrass; [8]
  Plant response rating, Blackgrass: 3
blackgrass; [9]
  Blackgrass plant response rating: 0
blackgrass; [10]
  Blackgrass plant response rating: 0
Duck salad; [12]
  Ducksalad plant response rating: 0
Duck salad; [13]
  Ducksalad plant response rating (0 to 10 scale, 0 is no effect, 10 is complete control): 0
Duck salad; [14]
  Ducksalad plant response rating: 0
Duck salad; [15]
  Ducksalad plant response rating: 0
